# Measured values from PubChem BioAssay AID256 (DTP/NCI, 2004).
# Several values for one entry are separate records, joined by “and”; a condition that tells them apart may be missing. Identical values can stand only once. Toxic doses and inconclusive results are not listed.
# System: CD2F1 mice, L1210 leukemia ip, survival T/C
# Assay: NCI In Vivo Anticancer Drug Screen. Data for tumor model L1210 Leukemia (intraperitoneal) in CD2F1 (CDF1) mice
# Settings: endpoint: mean survival time, higher = longer survival
# Method in brief: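 Antitumor effect is scored in animals hosting a serially transplanted tumor. Values compare compound-dosed animals against vehicle-only controls as a simple quotient.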
# [1] = dose: 12.5 mg/kg/injection, schedule: Q01DX005 (ip), vehicle: water
# [2] = dose: 25.0 mg/kg/injection, schedule: Q01DX005 (ip), vehicle: water
# [3] = dose: 50.0 mg/kg/injection, schedule: Q01DX005 (ip), vehicle: water
# [4] = dose: 100.0 mg/kg/injection, schedule: Q01DX009 (ip), vehicle: saline with Tween-80
# [5] = dose: 200.0 mg/kg/injection, schedule: Q01DX009 (ip), vehicle: saline with Tween-80
# [6] = dose: 100.0 mg/kg/injection, schedule: Q04DX003 (ip), vehicle: saline with Tween-80
# [7] = dose: 200.0 mg/kg/injection, schedule: Q04DX003 (ip), vehicle: saline with Tween-80
# [8] = dose: 400.0 mg/kg/injection, schedule: Q04DX003 (ip), vehicle: saline with Tween-80
# [9] = dose: 12.5 mg/kg/injection, schedule: Q04DX003 (ip), vehicle: saline
# [10] = dose: 25.0 mg/kg/injection, schedule: Q04DX003 (ip), vehicle: saline
# [11] = dose: 50.0 mg/kg/injection, schedule: Q04DX003 (ip), vehicle: saline
# [12] = dose: 10.0 mg/kg/injection, schedule: Q01DX009 (ip), vehicle: saline with Tween-80
# [13] = dose: 20.0 mg/kg/injection, schedule: Q01DX009 (ip), vehicle: saline with Tween-80
# [14] = dose: 40.0 mg/kg/injection, schedule: Q01DX009 (ip), vehicle: saline with Tween-80
# [15] = dose: 80.0 mg/kg/injection, schedule: Q01DX009 (ip), vehicle: saline with Tween-80
# [16] = dose: 400.0 mg/kg/injection, schedule: Q01DX009 (ip), vehicle: saline with Tween-80
# [17] = dose: 25.0 mg/kg/injection, schedule: Q01DX009 (ip), vehicle: saline with Tween-80
# [18] = dose: 50.0 mg/kg/injection, schedule: Q01DX009 (ip), vehicle: saline with Tween-80
smiles,measurement,setting,value
OCC1OC(n2cc(I)c3c2ncn2nnnc32)C(O)C1O (stereo not drawn),T/C,"dose: 1.56 mg/kg/injection, schedule: Q01DX005 (ip), vehicle: water",88 % of control
same,T/C,"dose: 3.13 mg/kg/injection, schedule: Q01DX005 (ip), vehicle: water",95 % of control
same,T/C,"dose: 6.25 mg/kg/injection, schedule: Q01DX005 (ip), vehicle: water",95 % of control
same,T/C,[1],98 % of control
same,T/C,[2],87 % of control and 97 % of control
same,T/C,[3],97 % of control
NNC(=S)NC1CC2C=CC1C2 (stereo not drawn),T/C,"dose: 6.25 mg/kg/injection, schedule: Q04DX003 (ip), vehicle: saline with Tween-80",95 % of control
same,T/C,"dose: 12.5 mg/kg/injection, schedule: Q04DX003 (ip), vehicle: saline with Tween-80",95 % of control
same,T/C,"dose: 25.0 mg/kg/injection, schedule: Q04DX003 (ip), vehicle: saline with Tween-80",97 % of control
CCC(C1=NC(C)(C)CC(C)O1)c1ccccc1 (stereo not drawn) (tested in a mixture with another compound),T/C,[4],102 % of control
same,T/C,[5],93 % of control
CCOC(=O)C(Cc1ccccc1Cl)(Cc1ccccc1Cl)c1ccccc1,T/C,[6],93 % of control
same,T/C,[7],98 % of control
same,T/C,[8],90 % of control
CC1(CNC(=O)C(=O)NCC2(C)CO2)CO1 (stereo not drawn),T/C,"dose: 22.0 mg/kg/injection, schedule: Q01DX Z (ip), vehicle: saline",122 % of control
same,T/C,"dose: 150.0 mg/kg/injection, schedule: Q01DX010 (ip), vehicle: saline",113 % of control
same,T/C,"dose: 225.0 mg/kg/injection, schedule: Q01DX010 (ip), vehicle: saline",106 % of control
CCCCCCCCCCNC(=O)C[n+]1cccc(C(=O)N(C)C)c1,T/C,"dose: 12.5 mg/kg/injection, schedule: Q01DX009 (ip), vehicle: saline sonified",100 % of control
same,T/C,[9],95 % of control
same,T/C,"dose: 25.0 mg/kg/injection, schedule: Q01DX009 (ip), vehicle: saline sonified",97 % of control
same,T/C,[10],97 % of control
same,T/C,"dose: 50.0 mg/kg/injection, schedule: Q01DX009 (ip), vehicle: saline sonified",102 % of control
same,T/C,[11],101 % of control
CN(C)CCNc1ccc(O)c2c1C(=O)c1ccccc1C2=O,T/C,[12],94 % of control
same,T/C,[13],90 % of control
same,T/C,[14],107 % of control
same,T/C,[15],122 % of control
CC(CC(O)(c1ccccc1)c1ccccc1)C(F)(F)F (stereo not drawn),T/C,[4],100 % of control
same,T/C,[6],94 % of control
same,T/C,[5],95 % of control
same,T/C,[7],96 % of control
same,T/C,[16],98 % of control
same,T/C,[8],97 % of control
COc1ccc(/C(C)=N/N=C\c2cc(OC)c(OC)c(OC)c2)cc1,T/C,[4],91 % of control
same,T/C,[5],89 % of control
same,T/C,[16],88 % of control
CC(CC=O)P(=O)(c1ccccc1)c1ccccc1 (stereo not drawn),T/C,[4],94 % of control
same,T/C,[6],94 % of control
same,T/C,[5],92 % of control
same,T/C,[7],91 % of control
same,T/C,[16],95 % of control
same,T/C,[8],91 % of control
CN1CCN(c2ccc([N+](=O)[O-])c3no[n+]([O-])c23)CC1,T/C,"dose: 2.5 mg/kg/injection, schedule: Q01DX009 (ip), vehicle: saline with Tween-80",105 % of control and 112 % of control
same,T/C,"dose: 5.0 mg/kg/injection, schedule: Q01DX009 (ip), vehicle: saline with Tween-80",114 % of control and 108 % of control
same,T/C,"dose: 5.0 mg/kg/injection, schedule: Q01DX009 (ip), vehicle: saline",123 % of control
same,T/C,[12],116 % of control and 110 % of control
same,T/C,[13],117 % of control and 119 % of control
same,T/C,[14],122 % of control and 103 % of control
same,T/C,[15],121 % of control
C[Si](C)(C)NP(=O)(Oc1ccc([N+](=O)[O-])cc1)Oc1ccc([N+](=O)[O-])cc1,T/C,"dose: 15.6 mg/kg/injection, schedule: Q01DX001 (ip), vehicle: other",110 % of control
same,T/C,"dose: 31.3 mg/kg/injection, schedule: Q01DX001 (ip), vehicle: other",97 % of control
same,T/C,"dose: 62.5 mg/kg/injection, schedule: Q01DX001 (ip), vehicle: other",102 % of control and 108 % of control
same,T/C,"dose: 125.0 mg/kg/injection, schedule: Q01DX001 (ip), vehicle: other",87 % of control and 94 % of control
O=C(/C(=C\c1ccccc1)N1CCOCC1)c1ccc(Cl)cc1,T/C,[17],95 % of control
same,T/C,[18],97 % of control
same,T/C,[4],86 % of control
CCOC(=O)Nc1cccc([N+](=O)[O-])c1,T/C,"dose: 100.0 mg/kg/injection, schedule: Q01DX009 (ip), vehicle: other",98 % of control
same,T/C,"dose: 200.0 mg/kg/injection, schedule: Q01DX009 (ip), vehicle: other",113 % of control
COc1cc2c(cc1OC)C(OC)N(C)c1c-2ccc2cc3c(cc12)OCO3 (stereo not drawn),T/C,"dose: 3.13 mg/kg/injection, schedule: Q01DX009 (ip), vehicle: water",117 % of control
same,T/C,"dose: 6.25 mg/kg/injection, schedule: Q01DX009 (ip), vehicle: water",121 % of control
same,T/C,"dose: 12.5 mg/kg/injection, schedule: Q01DX009 (ip), vehicle: water",123 % of control
same,T/C,"dose: 25.0 mg/kg/injection, schedule: Q01DX009 (ip), vehicle: water",121 % of control
CCCCCCC#CC(=O)OC,T/C,[4],101 % of control
same,T/C,[6],96 % of control
same,T/C,[5],101 % of control
same,T/C,[7],102 % of control
same,T/C,[8],97 % of control
CCN(CC)CC[n+]1ccc2c(C)c3[nH]c4ccc(O)cc4c3c(C)c2c1,T/C,"dose: 3.12 mg/kg/injection, schedule: Q01DX009 (ip), vehicle: suspension in saline",179 % of control
same,T/C,"dose: 6.25 mg/kg/injection, schedule: Q01DX009 (ip), vehicle: suspension in saline",228 % of control
same,T/C,"dose: 12.5 mg/kg/injection, schedule: Q01DX009 (ip), vehicle: suspension in saline",170 % of control and 262 % of control
same,T/C,"dose: 25.0 mg/kg/injection, schedule: Q01DX009 (ip), vehicle: suspension in saline",116 % of control and 111 % of control
same,T/C,"dose: 50.0 mg/kg/injection, schedule: Q01DX009 (ip), vehicle: saline",102 % of control
same,T/C,"dose: 50.0 mg/kg/injection, schedule: Q01DX009 (ip), vehicle: suspension in saline",92 % of control
CCN(CC)CCCOC(=O)c1ccc(N)cc1,T/C,[9],107 % of control
same,T/C,[10],105 % of control
same,T/C,[11],101 % of control
O=c1[nH][nH]c2ccccc12,T/C,[6],98 % of control
same,T/C,[7],94 % of control
same,T/C,[8],98 % of control
CCC1(C(=O)OC)CCC2C3CCC4CCCCC4(C)C3CCC21C (stereo not drawn),T/C,"dose: 75.0 mg/kg/injection, schedule: Q04DX003 (sc), vehicle: steriod suspending solution",103 % of control
same,T/C,"dose: 150.0 mg/kg/injection, schedule: Q04DX003 (sc), vehicle: steriod suspending solution",101 % of control
same,T/C,"dose: 300.0 mg/kg/injection, schedule: Q04DX003 (sc), vehicle: steriod suspending solution",101 % of control
Cc1ccccc1NC(=O)CC#N,T/C,[17],96 % of control
same,T/C,[18],96 % of control
same,T/C,[4],94 % of control
O=c1[nH]c(=S)ccn1C1OC(COP(=O)(O)O)C(O)C1O (stereo not drawn),T/C,[1],98 % of control
same,T/C,[2],103 % of control
same,T/C,[3],103 % of control
same,T/C,"dose: 100.0 mg/kg/injection, schedule: Q01DX005 (ip), vehicle: water",103 % of control
same,T/C,"dose: 200.0 mg/kg/injection, schedule: Q01DX005 (ip), vehicle: water",103 % of control
Cc1ccccc1CC#N,T/C,"dose: 12.5 mg/kg/injection, schedule: Q04DX002 (ip), vehicle: saline",96 % of control
same,T/C,"dose: 25.0 mg/kg/injection, schedule: Q04DX002 (ip), vehicle: saline",99 % of control
O/N=C(\c1ccccc1)C1C(/C(=N/O)c2ccccc2)C1c1ccccc1 (stereo not drawn) (tested in a mixture with another compound),T/C,[4],95 % of control
same,T/C,[5],95 % of control
same,T/C,[16],90 % of control
O=C1CSC(=S)N1Cc1ccccc1,T/C,[6],101 % of control
same,T/C,[7],97 % of control
same,T/C,[8],97 % of control
CCN1CCCC(Nc2nc(Nc3ccc(Cl)c(Cl)c3)nc3ccc(Cl)cc23)C1 (stereo not drawn),T/C,[6],89 % of control
same,T/C,[7],94 % of control
[CH3][Sb]([CH3])([CH3])([O]C(=O)CCl)[O]C(=O)CCl,T/C,"dose: 100.0 mg/kg/injection, schedule: Q04DX002 (ip), vehicle: saline with Tween-80",107 % of control
same,T/C,"dose: 200.0 mg/kg/injection, schedule: Q04DX002 (ip), vehicle: saline with Tween-80",107 % of control
same,T/C,"dose: 400.0 mg/kg/injection, schedule: Q04DX002 (ip), vehicle: saline with Tween-80",103 % of control
